From PMC5739597, “Discovery and evaluation of triple inhibitors of VEGFR-2, TIE-2 and EphB4 as anti-angiogenic and anti-cancer agents” (Oncotarget, 2017) come the findings set out here.

SMILES strings stand for the structures.

The target in one experiment is T1, EphB4 (Homo sapiens, UniProt P54760).
T1 sequence (P54760 16-987): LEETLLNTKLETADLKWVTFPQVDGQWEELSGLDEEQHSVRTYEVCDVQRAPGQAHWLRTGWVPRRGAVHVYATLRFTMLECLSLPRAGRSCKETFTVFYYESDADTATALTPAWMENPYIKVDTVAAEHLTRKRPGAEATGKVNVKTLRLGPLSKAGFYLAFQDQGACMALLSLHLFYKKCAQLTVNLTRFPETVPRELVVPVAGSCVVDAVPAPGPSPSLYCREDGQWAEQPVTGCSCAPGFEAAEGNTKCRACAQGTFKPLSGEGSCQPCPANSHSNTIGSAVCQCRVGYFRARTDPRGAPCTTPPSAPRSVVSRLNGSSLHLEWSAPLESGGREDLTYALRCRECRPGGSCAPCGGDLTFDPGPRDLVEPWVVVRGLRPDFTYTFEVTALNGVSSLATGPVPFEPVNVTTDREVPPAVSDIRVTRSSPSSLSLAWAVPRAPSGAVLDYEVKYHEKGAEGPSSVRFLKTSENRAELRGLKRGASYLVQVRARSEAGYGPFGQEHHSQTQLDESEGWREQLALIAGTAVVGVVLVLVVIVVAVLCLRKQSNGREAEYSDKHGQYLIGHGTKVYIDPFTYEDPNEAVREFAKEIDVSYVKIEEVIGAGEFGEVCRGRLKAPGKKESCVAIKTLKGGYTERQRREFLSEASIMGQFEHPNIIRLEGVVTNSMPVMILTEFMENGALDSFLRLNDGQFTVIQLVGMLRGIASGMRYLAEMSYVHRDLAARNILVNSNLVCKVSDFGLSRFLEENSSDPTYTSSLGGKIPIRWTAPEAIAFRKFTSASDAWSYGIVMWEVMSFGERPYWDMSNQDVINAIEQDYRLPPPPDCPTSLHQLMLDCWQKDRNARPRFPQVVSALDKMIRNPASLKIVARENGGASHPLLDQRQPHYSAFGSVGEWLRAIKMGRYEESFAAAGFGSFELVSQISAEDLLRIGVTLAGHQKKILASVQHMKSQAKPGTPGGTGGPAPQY
Briefly: ADP-Glo in vitro RTK inhibition assay, EphB4. It counts as biochemical. The conditions noted are these: ATP 50 μM. How it is done:
(§1) In order to validate the direct effect of title compounds on VEGFR-2, Tie-2, and EphB4 kinases, we performed in vitro assay using the ADP-Glo Kinase Assay Kit (Promega, Wisconsin, USA).
(§2) The kinase assay was performed in a reaction mixture of final volume of 10 μL. […] The plate was incubated at 30°C for 1 h. After the plate was cooled at room temperature for 5 min, 5 μL of ADP-Glo reagent was added into each well to stop the reaction and consume the remaining […] within 40 min. At the end, 10 μL of kinase detection reagent was added into the well and incubated for 30 min to produce a luminescence signal. […] The assay plate was incubated at 30°C for 4 h. After the plate was cooled at room temperature for 5 min, 5 μL of ADP-Glo reagent was added into each well to stop the reaction and consume the remaining […] within 1 h. At the end, 10 μL of kinase detection reagent was added into each well and incubated for 30 min to produce a luminescence signal. The luminescence was read by VICTOR-X multi-label plate reader.

A further experiment concerns the target B-Raf (Homo sapiens, UniProt P15056). Briefly: Kinase-Glo Plus RTK selectivity assay, B-Raf. The experiment is classed as biochemical. Conditions: 10 μM ATP. The protocol: A 50 μL reaction mixture contains 40 mM Tris, pH 7.4, 10 mM MgCl2, 0.1 mg/ml BSA, 1 mM DTT, 10 μM ATP, kinase and substrate (0.2 mg/mL Poly(Glu, Tyr)/10 μM ATP). The test compounds were diluted in 10% DMSO and 5 μL of the dilution was added to a 50 μL reaction so that the final concentration of DMSO is 1% in all of reactions. The assay was performed using Kinase-Glo Plus luminescence kinase assay kit. It measures kinase activity by quantitating the amount of ATP remaining in solution following a kinase reaction. The luminescent signal from the assay is correlated with the amount of ATP present and is inversely correlated with the amount of kinase activity. The IC50 values were calculated using nonlinear regression with normalized dose−response fit using Prism GraphPad software.

Experiment [1] has as its system VEGFR-2. Briefly: Western blot of VEGFR-2 level and phosphorylation in EA.hy926 cells. The experiment is classed as cell-based, human. How it is done:
The expression and phosphorylation of VEGFR-2 in EA.hy926 cells were assessed using western blot analysis with various antibodies. […] Cell lysates containing equal amounts of protein were separated by SDS polyacrylamide gel electrophoresis and transferred to polyvinylidene difluoride membranes. After being blocked in 5% nonfat milk in Tris-buffered saline with 0.1% Tween 20, pH 7.6, the membranes were incubated with the appropriate primary antibodies at 4°C overnight and then exposed to secondary antibodies for 2 h at room temperature. Immunoreactive proteins were visualized using the enhanced chemiluminescence system from Pierce Chemical.

The next experiment deals with EA.hy926 cells. Put plainly: Apoptosis detection assay (annexin V-FITC/PI flow cytometry). The experiment is classed as cell-based, human. Conditions: 48 h, negative control 10.35%. The protocol: A substantial and dose-dependent proapoptotic activity in HECs at various concentrations for 48 h was observed. The apoptotic EA.hy926 cells (10.35%) of negative control group were depicted in Figure 3A.
The cells were then harvested by trypsinization and washed twice with cold PBS. After centrifugation and removal of the supernatants, EA.hy926 cells were re-suspended in 400 μL of 1×binding buffer which was then added to 5 μL of annexin V-FITC and incubated at room temperature for 15 min. After adding 10 μL of PI the cells were incubated at room temperature for another 15 min in the dark. The stained cells were analyzed by a flow cytometer (BD Accuri C6).

Experiment [2] relates to normal human liver cells (QSG7701). Put plainly: Cytotoxicity on normal cells, QSG7701. The experiment is classed as cell-based. Conditions: MTT, 48 h, read-out: Anti-proliferative activity IC50, QSG7701 (normal cells). The protocol:
In order to determine the anti-angiogenic effect of these multi-target inhibitors, we evaluated their effect on HECs (EA.hy926) viability using cell counting kit-8 (CCK-8) method.
(§3) These RTKs play critical roles in the proliferation of various cancers. Therefore, RTKs inhibition generally translate well into anti-proliferation activity.
(§4) Exponentially growing cells were harvested and plated in 96-well plates at a concentration of 1×10^4 cells/well per well, and then were incubated at 37°C for 24 h. […] Subsequently, 22 μL fresh MTT (5 mg/mL) was added to each well and incubated at 37°C for 4 h. […] DMSO was added to each well after supernatant was discarded. Absorbance values were determined by a microplate reader (Bio-Rad Instruments) at 490 nm. The IC50 values were calculated according to inhibition ratios.

The target in experiment [3] is VEGFR-2 (Homo sapiens, UniProt P35968). Put plainly: ADP-Glo in vitro RTK inhibition assay, VEGFR-2. Conditions: ATP 50 μM. The experiment is classed as biochemical. How it is done: as §1, §2
Chain of VEGFR-2 (Homo sapiens, UniProt P35968) (P35968 20-1356): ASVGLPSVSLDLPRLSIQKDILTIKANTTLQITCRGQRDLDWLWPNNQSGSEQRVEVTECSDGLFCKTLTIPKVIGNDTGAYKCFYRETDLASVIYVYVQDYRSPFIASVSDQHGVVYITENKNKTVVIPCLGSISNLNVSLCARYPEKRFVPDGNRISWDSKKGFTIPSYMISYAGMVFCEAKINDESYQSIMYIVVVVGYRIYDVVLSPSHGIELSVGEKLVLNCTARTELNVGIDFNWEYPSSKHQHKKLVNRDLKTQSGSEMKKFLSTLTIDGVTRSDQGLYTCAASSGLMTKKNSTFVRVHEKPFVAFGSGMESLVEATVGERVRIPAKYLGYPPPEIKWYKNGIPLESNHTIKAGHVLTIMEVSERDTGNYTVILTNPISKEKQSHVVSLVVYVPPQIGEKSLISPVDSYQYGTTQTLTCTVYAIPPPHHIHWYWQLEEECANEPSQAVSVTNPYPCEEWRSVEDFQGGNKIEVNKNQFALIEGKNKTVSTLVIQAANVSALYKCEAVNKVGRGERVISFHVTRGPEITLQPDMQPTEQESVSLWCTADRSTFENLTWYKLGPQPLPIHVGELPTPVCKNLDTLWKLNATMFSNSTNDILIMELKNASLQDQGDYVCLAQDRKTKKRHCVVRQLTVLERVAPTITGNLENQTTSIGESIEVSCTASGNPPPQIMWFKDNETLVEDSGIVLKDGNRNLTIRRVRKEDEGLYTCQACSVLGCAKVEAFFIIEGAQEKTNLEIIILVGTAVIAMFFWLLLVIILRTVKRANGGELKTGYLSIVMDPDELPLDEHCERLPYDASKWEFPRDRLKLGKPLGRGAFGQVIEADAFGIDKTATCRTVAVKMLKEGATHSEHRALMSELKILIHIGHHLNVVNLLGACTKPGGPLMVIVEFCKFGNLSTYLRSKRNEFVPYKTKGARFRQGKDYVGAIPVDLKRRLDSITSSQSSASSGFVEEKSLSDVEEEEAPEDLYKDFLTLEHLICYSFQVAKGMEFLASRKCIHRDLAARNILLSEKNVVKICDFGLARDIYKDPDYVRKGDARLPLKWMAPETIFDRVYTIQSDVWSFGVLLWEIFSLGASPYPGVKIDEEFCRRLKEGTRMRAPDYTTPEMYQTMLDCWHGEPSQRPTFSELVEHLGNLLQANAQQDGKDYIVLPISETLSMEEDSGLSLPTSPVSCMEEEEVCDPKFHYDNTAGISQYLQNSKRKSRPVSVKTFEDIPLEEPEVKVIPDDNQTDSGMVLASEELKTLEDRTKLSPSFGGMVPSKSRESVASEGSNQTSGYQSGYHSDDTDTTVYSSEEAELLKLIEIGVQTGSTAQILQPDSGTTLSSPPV
Experiment [4] concerns human pancreatic cancerous cell lines (PANC-1). Briefly: Anti-proliferative MTT assay, PANC-1. It counts as cell-based. The conditions noted are these: 48 h. How it is done: as §3, §4

Chain of B-Raf (P15056 whole entry, species assumed): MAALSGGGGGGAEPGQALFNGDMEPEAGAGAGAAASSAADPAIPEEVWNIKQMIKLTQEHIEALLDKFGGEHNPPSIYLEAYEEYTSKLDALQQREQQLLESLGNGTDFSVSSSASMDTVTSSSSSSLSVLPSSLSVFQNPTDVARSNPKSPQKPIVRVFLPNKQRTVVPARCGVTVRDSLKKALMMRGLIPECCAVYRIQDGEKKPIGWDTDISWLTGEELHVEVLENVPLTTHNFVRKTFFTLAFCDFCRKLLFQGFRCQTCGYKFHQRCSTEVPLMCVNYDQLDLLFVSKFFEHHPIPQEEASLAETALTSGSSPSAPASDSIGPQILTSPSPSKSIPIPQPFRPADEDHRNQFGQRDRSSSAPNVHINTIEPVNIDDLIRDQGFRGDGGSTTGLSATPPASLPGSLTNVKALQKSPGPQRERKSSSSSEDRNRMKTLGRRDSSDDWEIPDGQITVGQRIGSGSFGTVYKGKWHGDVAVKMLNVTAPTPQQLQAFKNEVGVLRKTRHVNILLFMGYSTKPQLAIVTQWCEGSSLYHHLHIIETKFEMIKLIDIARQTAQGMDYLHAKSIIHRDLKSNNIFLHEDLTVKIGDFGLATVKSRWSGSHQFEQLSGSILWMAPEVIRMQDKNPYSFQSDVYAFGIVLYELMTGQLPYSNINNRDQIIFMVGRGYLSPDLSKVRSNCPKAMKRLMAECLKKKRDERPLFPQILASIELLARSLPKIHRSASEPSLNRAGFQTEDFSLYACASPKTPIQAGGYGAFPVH

Turning to `O=C(Nc1ccc(-c2ccc3c(=O)[nH]cnc3c2)cc1)Nc1ccc(F)c(F)c1` [QDAU5, 1-(3,4-difluorophenyl)-3-(4-(4-oxo-3,4-dihydroquinazolin-7-yl)phenyl)urea], the IC50 against EphB4 is 0.00321 µM; on B-Raf, over 0.5 µM; in experiment [2], over 100 µM; against VEGFR-2 [3] it was 0.00077 µM; in experiment [4], 24.9 µM. Moreover, in the experiment with VEGFR-2 [1] (EA.hy926, 48 h, then 50 ng/mL VEGF for 10 min), the “VEGF-induced tyrosine phosphorylation of VEGFR-2” value was “dose-dependently decreased”. For the same compound, the “level of VEGFR-2” value in the experiment on VEGFR-2 [1] (VEGF-stimulated EA.hy926, 48 h) was “moderately reduced”. Moreover, the “percentage of early apoptotic cells” value in the experiment on EA.hy926 cells (EA.hy926, 5 nM) came out at 19.55%; with EA.hy926 cells (EA.hy926, 20 nM), 28.35%; with EA.hy926 cells (EA.hy926, 40 nM), 31.43%.
